Patent US11744815B1, “Pharmaceutical composition of dimethylguanidino valeric acid and plant flavonoids for treating chronic inflammatory diseases and cancer” (priority 2022, dated 2023)
“Also recorded” adds a separate entry of the source.

Legend:
[1] = tested on: mouse T cells; assay: Mitochondrial ROS by flow cytometry using CellROX Green, mouse T cells; assay type: cell-based
From the text: (§1) The invention further investigated how DMGV suppresses cell proliferation and survival.

[2] = tested on: calcium flux; assay: Calcium flux by flow cytometry using Fluo-8; assay type: cell-based; settings: Fluo-8
Method: (§2) As a sudden influx of calcium to the mitochondria can cause ROS induction, we tested whether DMGV regulates calcium flux to induce ROS. Calcium flux was measured by flow cytometry using the calcium indicator Fluo-8. While stimulation of T cell receptor (TCR) by a stimulatory antibody triggered calcium release from ER (efflux), which in turn induced calcium influx from the outside to cytosol (influx). […] Because of the close proximity between ER and mitochondria, calcium efflux from ER leads to calcium import to the mitochondria, which can be mediated by MCU.

[3] = tested on: Jurkat (Human T lymphocytic leukemia cell lines); assay: Survival of hematological cancer cell line Jurkat; assay type: cell-based
[4] = tested on: AGXT2^−/− T cells; assay: ROS induction in AGXT2-KO T cells; assay type: cell-based, mice; settings: ADMA 10 μM, SDMA 10 μM, DMGV (504)
Method: DMGV is converted from asymmetric dimethylarginine (ADMA) or symmetric dimethylarginine (SDMA) by alanine-glyoxylate aminotransferase 2 (AGXT2) in the mitochondria whereas ADMA or SDMA is metabolized to L-citrulline in the cytosol as shown in FIG. 6A. In order to investigate the role of DMGV in T cells, we generated AGXT2-KO (AGXT2^−/−) mice using Crispr/Cas9 technology according to FIG. 6B. Neither ADMA (10 μM) or SDMA (10 μM) induce ROS in AGXT2^−/− T cells but DMGV (504) still does, an evidence that SDMA or ADMA induces ROS only when they are converted to DMGV (FIG. 6C).

[5] = tested on: HL-60 (Acute myeloid leukemia M3 cell lines); assay: Survival of hematological cancer cell line HL-60; assay type: cell-based
[6] = tested on: HCA-7 (colorectal cancer cell lines); assay: Solid tumor cell survival by CCK-8 after 2 days, HCA-7; assay type: cell-based
Method: (§3) In example one, pharmaceutical composition was screened and discovered natural small molecules that inhibit T cell survival and proliferation to use as therapeutics for chronic inflammatory diseases and cancers as taught in FIG. 1, T cells were stimulated with or without the indicated amount of DMGV and survival was measured by flow cytometry after 3 days. […] Solid tumor cancer cell lines were incubated with different doses of DMGV or 5-FU (5-fluorouracil), and cells survival was measured by CCK-8 after 2 days.

[7] = tested on: chronic colitis; assay: Chronic colitis by adoptive transfer of naïve CD4+ T cells; assay type: in vivo, Rag2^−/− mice
From the text: The present invention tested if DMGV suppresses chronic T cell-mediated inflammation in two mouse models. In the first model, adoptive transfer of naïve CD4^+ T cells from syngeneic mice into immunodeficient (Rag2^−/−) mice induces chronic colitis similar to inflammatory bowel diseases (IBD) in humans, due to differentiation of T cells into pathogenic Th17 cells in the absence of regulatory T cells (Tregs). After adoptively transferring naïve CD4^+ T cells from syngeneic mice to recombinase activating gene-2-deficient (Rag2^−/−) mice to induce colitis, the mice showing the disease symptom in the form of loose stool around 4-6 weeks were randomly divided into two groups. One group (n=9) was treated with DMGV (i.p. 750 μg/mouse, twice a week) and the control group (n=11) with PBS up to 40 days and mortality was observed.

[8] = tested on: human T cells; assay: Mitochondrial ROS by flow cytometry using CellROX Green, human T cells; assay type: cell-based
From the text: as §1

[9] = molecular target: T1, MCU (Homo sapiens, UniProt Q8NE86); assay: Mitochondrial calcium influx in Jurkat cells expressing Mito-GEM-GECO; assay type: cell-based; settings: Jurkat cells, Mito-GEM-GECO
T1 construct: endogenous in cells; host or cells: Jurkat T cells
T1 sequence (Q8NE86 51-351): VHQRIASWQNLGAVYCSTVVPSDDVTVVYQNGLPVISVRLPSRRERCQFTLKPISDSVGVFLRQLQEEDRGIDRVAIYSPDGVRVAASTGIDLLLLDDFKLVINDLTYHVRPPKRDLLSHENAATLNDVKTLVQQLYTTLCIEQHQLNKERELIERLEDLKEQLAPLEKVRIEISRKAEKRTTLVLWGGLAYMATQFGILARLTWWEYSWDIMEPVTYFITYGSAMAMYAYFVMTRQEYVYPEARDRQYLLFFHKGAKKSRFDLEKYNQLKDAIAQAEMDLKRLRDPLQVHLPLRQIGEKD
T1 sequence (Q9H4I9 48-107 partner limits assumed): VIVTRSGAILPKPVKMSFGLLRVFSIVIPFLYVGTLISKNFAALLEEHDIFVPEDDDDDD
Method: as §2
(§4) As certain flavonoids are known to active MCU, we tested whether DMGV and the flavonoids activate MCU in the same manner. Jurkat T cells were treated with the flavonoids [kaempferol (5 μM), quercetin (25 μM), or daidzein (5 μM)]. […] The molecular docking simulator SwissDock predicted that the flavonoids and DMGV bind to MCU in a same pocket.

[10] = tested on: activated T cells; assay: T cell survival by flow cytometry after 3 days; assay type: cell-based; settings: stimulated with indicated amount of DMGV
Method: as §3

[11] = tested on: Jurkat T cells; assay: Mitochondrial ROS by flow cytometry using CellROX Green, Jurkat T cells; assay type: cell-based, human
Method: as §1
In order to locate the cellular compartment of ROS generated by DMGV, Jurkat T cells were incubated with the mitochondria-specific ROS inhibitor MitoQ (100 nM) for 15 min before stimulation with DMGV (504) for ROS measurement.
as §4

[12] = tested on: MCU mutants deleted of Ile127, V135, or Ile127 and V135; assay: MCU deletion mutants transfected to MCU KO cells; assay type: cell-based
From the text: To test whether Ile127 and V135 are important for these compounds to activate MCU, we generated 3 different MCU mutants deleted of Ile127, V135, or Ile127 and V135. These MCU mutants were transfected to MCU KO cells and stimulated with kaempferol, daidzein, quercetin, or DMGV.

[13] = tested on: autoimmune arthritis; assay: Chronic autoimmune arthritis in SKG mice accelerated by laminarian; assay type: in vivo; settings: i.p. 750 μg/mouse, twice a week, up to 50 days, start at score 8
From the text: In the second model, SKG mice harbor a point mutation in ZAP-70^W163C and Develop Chronic autoimmune arthritis similar to human RA due to aberrant T cell activation. The disease can be accelerated by injection of […].

[14] = tested on: K-562 (Human chronic myeloid leukemia cell lines); assay: Survival of hematological cancer cell line K-562; assay type: cell-based
[15] = tested on: activated T cells; assay: Energy metabolism by Seahorse assay; assay type: cell-based, mouse
From the text: The invention tested if DMGV relied on glycolysis to suppress cell survival.

dimethylguanidino valeric acid [DMGV]
induction of mitochondrial ROS [1]: rapidly induces mitochondrial ROS
calcium efflux (release from ER) [2]: induced efflux
calcium influx from the outside to cytosol [2]: not influx
survival of Jurkat cells [3]: suppresses survival
ROS induction in AGXT2^−/− T cells [4]: still does
survival of HL-60 cells [5]: suppresses survival
proliferation of HCA-7 [6]: suppresses proliferation
survival (mortality) of colitis mice ([7]; i.p. 750 μg/mouse, twice a week, up to 40 days, n=9): all except for one mouse survived
normalized IL-17A+ T cell number in colonic tissue ([7]; survived mice, compared to the control group): significantly lower
induction of mitochondrial ROS [8]: rapidly induces mitochondrial ROS
calcium influx to the mitochondria [9]: induces calcium influx to the mitochondria
survival and proliferation of activated T cells [10]: inhibit the survival and proliferation of activated T cells
induction of mitochondrial ROS ([11]; Jurkat T cells): rapidly induces mitochondrial ROS
ROS induction in glucose-free medium ([11]; Jurkat T cells in RPMI without glucose for 24 h): does not induce ROS
dependence of DMGV-induced ROS on MCU ([11]; Ru360 or MCU KO): dependent on MCU
dependence of MCU activation on Ile127 ([12]; MCU mutant deleted of Ile127 in MCU KO cells): completely; also recorded: dependent mostly on Ile127
dependence of MCU activation on V135 ([12]; MCU mutant deleted of V135 in MCU KO cells): independent on Va1135
arthritis score [13]: significantly decreased the arthritis score
survival of K-562 cells [14]: suppresses survival
glycolysis [15]: significantly inhibited
oxidative phosphorylation [15]: significantly inhibited
